Data reported in patent publication US20150189882A1, “ACTIVE INGREDIENT COMBINATIONS HAVING INSECTICIDAL AND ACARICIDAL PROPERTIES” (priority 2011, published 2015).
Like-named read-outs stand apart in the source and are kept apart here.

Legend:
[1] = tested on: Tetranychus urticae (OP-resistant); test: Tetranychus urticae - test (OP-resistant), French bean leaf discs; format: in vivo; settings: for mortality at 500 g/ha: 500 g ai/ha; for mortality at 0.16 g/ha: 0.16 g ai/ha
Method: (§1) To produce a suitable preparation of active compound, 1 part by weight of active compound is mixed with the stated amount of solvent and emulsifier, and the concentrate is diluted with emulsifier-containing water to the desired concentration. To produce a suitable preparation of a biological suspension the cells or spores are diluted with emulsifier-containing water to the desired concentration.
Leaf discs of French beans (Phaseolus vulgaris) infected with all instars of the Two-spotted spider mite (Tetranychus urticae), are sprayed with a preparation of the active ingredient at the desired concentration.
After the specified period of time mortality in % is determined. 100% means that all spider mites have been killed; 0% means that none of the spider mites have been killed.

Spodoptera frugiperda = Spodoptera frugiperda - spray application; format: in vivo; settings: for mortality at 20 g/ha: 20 g ai/ha
Method: as §1, with “cells, viruses” for “cells”
Cabbage (Brassica oleracea) leaf-discs are sprayed with a preparation of the active ingredient at the desired concentration. Once dry, the leaf discs are infested with larvae of the fall army worm (Spodoptera frugiperda).
After the specified period of time, mortality in % is determined. 100% means that all the caterpillars have been killed; 0% means that none of the caterpillars have been killed. The mortality values thus determined are recalculated using the Colby-formula.

[2] = tested on: Phaedon cochleariae larvae
Myzus persicae [3] = tested on: Myzus persicae
[4] = tested on: Phaedon cochleariae larvae; test: whole plant or invertebrate
Myzus persicae [5] = test: whole plant or invertebrate; settings: in Brassica rapa, foliar
[6] = read-out: Mortality in % after 6^d
[7] = Tetranychus urticae, foliar, 0.8 g ai/ha, read-out: Mortality in % after 2^d
[8] = Tetranychus urticae, foliar, 4 g ai/ha, read-out: Mortality in % after 2^d
[9] = Tetranychus urticae, foliar, read-out: Mortality in % after 2^d
[10] = Spodoptera frugiperda, 0.16 g ai/ha, read-out: Mortality in % after 6^d
[11] = read-out: Mortality in % after 1^d
[12] = read-out: Mortality in % after 2^d
[13] = Spodoptera frugiperda, read-out: Mortality in % after 2^d

Spinosad
Mortality in % after 2^d ([1]; 0.8 g ai/ha): 0%

CC1(C)C(C=C(Cl)Cl)C1C(=O)OC(C#N)c1ccc(F)c(Oc2ccccc2)c1 (stereo not drawn) [Beta-Cyfluthrin, beta-Cyfluthrin]
Mortality in % after 6^d (Spodoptera frugiperda; 0.8 g ai/ha): 83% | Mortality in % after 6^d ([2]; 0.8 g ai/ha): 50%

Emamectin benzoate [Emamectin-benzoate]
Mortality in % after 2^d ([2]; 0.8 g ai/ha): 67%

CC(=O)N1C(=O)N(NCc2cccnc2)Cc2cc(C(F)(C(F)(F)F)C(F)(F)F)ccc21 [Pyrifluquinazone, Pyrifluquinazon]
Mortality in % after 2^d ([1]; 0.8 g ai/ha): 0%

Milbemectin
Mortality in % after 6^d (Spodoptera frugiperda; 0.8 g ai/ha): 0% | Mortality in % after 6^d (Myzus persicae [3]; 4 g ai/ha): 70%

O=C(NC(=O)c1c(F)cccc1F)Nc1ccc(Oc2ccc(C(F)(F)F)cc2Cl)cc1F [Flufenoxuron]
mortality at 20 g/ha [4, 6]: 0% | mortality at 0.8 g/ha [1, 7]: 0%

COC(=O)N(C(=O)N1CO[C@@]2(C(=O)OC)Cc3cc(Cl)ccc3C2=N1)c1ccc(OC(F)(F)F)cc1 [Indoxacarb]
Mortality in % after 6^d (Spodoptera frugiperda; 0.8 g ai/ha): 50%

CCc1nn(C)c(C(=O)NCc2ccc(C(C)(C)C)cc2)c1Cl [Tebufenpyrad]
mortality at 4 g/ha [1, 8]: 0%

Lepimectin
Mortality in % after 2^d ([2]; 4 g ai/ha): 50%

CCOCn1c(-c2ccc(Cl)cc2)c(C#N)c(Br)c1C(F)(F)F [Chlorfenapyr]
mortality at 0.8 g/ha [1, 7]: 0%

C/C=C(\C)C(=O)O[C@H]1C[C@@H](OC(C)=O)[C@@]2(C(=O)OC)CO[C@H]3[C@@H](O)[C@@](C)([C@]45O[C@@]4(C)[C@H]4C[C@@H]5O[C@@H]5OC=C[C@@]54O)[C@H]4[C@]1(CO[C@]4(O)C(=O)OC)[C@@H]32 [Azadirachtin]
mortality at 100 g/ha (Myzus persicae [5]; [6]): 0% | mortality at 100 g/ha ([1]; Tetranychus urticae, foliar, 100 g ai/ha, read-out: Mortality in % after 2^d): 0%

Cc1c(F)c(F)c(COC(=O)[C@@H]2[C@H](/C=C(\Cl)C(F)(F)F)C2(C)C)c(F)c1F (racemic) [Tefluthrin]
mortality at 20 g/ha [4, 6]: 50% | mortality at 0.8 g/ha [1, 7]: 0%

CC(C)N1C(=O)N(c2ccccc2)CS/C1=N\C(C)(C)C [Buprofezin]
mortality at 500 g/ha [1, 9]: 0%

Cc1c(COC(=O)[C@@H]2[C@H](/C=C(\Cl)C(F)(F)F)C2(C)C)cccc1-c1ccccc1 (racemic) [Bifenthrin]
mortality at 0.16 g/ha (Spodoptera frugiperda; [10]): 0% | mortality at 0.8 g/ha [4, 6]: 50%

O=[N+]([O-])NC1=NCCN1Cc1ccc(Cl)nc1 [Imidacloprid]
mortality at 0.8 g/ha (Myzus persicae [5]; [11]): 0% | mortality at 20 g/ha [4, 6]: 0% | mortality at 0.8 g/ha [1, 7]: 0%

N#C/N=C1\SCCN1Cc1ccc(Cl)nc1 [Thiacloprid]
mortality at 20 g/ha (Spodoptera frugiperda; Spodoptera frugiperda, read-out: Mortality in % after 6^d): 0% | mortality at 20 g/ha [4, 6]: 33%

O=C(NC(=O)c1c(F)cccc1F)Nc1ccc(Cl)cc1 [Diflubenzuron]
mortality at 100 g/ha (Spodoptera frugiperda; Spodoptera frugiperda, 100 g ai/ha, read-out: Mortality in % after 2^d): 67% | mortality at 4 g/ha [1, 8]: 0%

CC(c1ccc(C(F)(F)F)nc1)S(C)(=O)=NC#N (stereo not drawn) [Sulfoxaflor]
mortality at 0.16 g/ha (Myzus persicae [5]; [11]): 0% | mortality at 4 g/ha [4, 6]: 0% | mortality at 0.16 g/ha [1, 9]: 0%

CC1(C)[C@H](C(=O)O[C@H](C#N)c2cccc(Oc3ccccc3)c2)[C@@H]1C=C(Br)Br [Deltamethrin]
mortality at 0.032 g/ha (Spodoptera frugiperda; Spodoptera frugiperda, 0.032 g ai/ha, read-out: Mortality in % after 6^d): 0%

CN/C(=N\[N+](=O)[O-])NCc1cnc(Cl)s1 [Clothianidin]
mortality at 20 g/ha (Myzus persicae [5]; [11]): 0% | mortality at 20 g/ha [4, 6]: 83%

Cc1ccc(C(C)C)c(O)c1 [Thymol]
mortality at 500 g/ha ([1]; Tetranychus urticae, foliar, read-out: Mortality in % after 6^d): 0%

CCN(Cc1ccc(Cl)nc1)/C(=C/[N+](=O)[O-])NC [Nitenpyram]
mortality at 20 g/ha [4, 6]: 0% | mortality at 0.8 g/ha [1, 7]: 0%

CN/C(=N/CC1CCOC1)N[N+](=O)[O-] (stereo not drawn) [Dinotefuran]
mortality at 20 g/ha (Myzus persicae [5]; [11]): 0% | mortality at 20 g/ha [4, 6]: 0%

CC1(C)[C@H](C(=O)O[C@H](C#N)c2cccc(Oc3ccccc3)c2)[C@@H]1/C=C(\Cl)C(F)(F)F (racemic) [Lambda-Cyhalothrin, lambda-Cyhalothrin]
mortality at 0.16 g/ha (Myzus persicae [5]; [6]): 0% | mortality at 0.16 g/ha (Spodoptera frugiperda; [10]): 33% | mortality at 0.8 g/ha [4, 12]: 67%

N#Cc1nn(-c2c(Cl)cc(C(F)(F)F)cc2Cl)c(N)c1[S+]([O-])C(F)(F)F (stereo not drawn) [Fipronil]
mortality at 0.16 g/ha [4, 12]: 0% | mortality at 0.8 g/ha [1, 7]: 0%

CC1=NNC(=O)N(/N=C/c2cccnc2)C1 [Pymetrozine]
mortality at 4 g/ha (Myzus persicae [5]; [6]): 0%

Abamectin
Mortality in % after 2^d ([1]; 0.032 g ai/ha): 0%

CCOP(=S)(OCC)Oc1nc(Cl)c(Cl)cc1Cl [Chlorpyrifos]
mortality at 4 g/ha (Myzus persicae [5]; [11]): 70% | mortality at 100 g/ha (Spodoptera frugiperda; [13]): 50% | mortality at 4 g/ha [1, 9]: 0%

CC1(C)C(C=C(Cl)Cl)C1C(=O)OC(C#N)c1cccc(Oc2ccccc2)c1 (stereo not drawn) [Alpha-Cypermethrin, alpha-Cypermethrin]
mortality at 4 g/ha [4, 6]: 0% | mortality at 0.16 g/ha [1, 9]: 0%

C/C(=N\C#N)N(C)Cc1ccc(Cl)nc1 [Acetamiprid]
mortality at 20 g/ha [4, 6]: 33%

Spinetoram
Mortality in % after 2^d ([1]; 0.8 g ai/ha): 0%

CS/C(C)=N\OC(=O)N(C)SN(C)C(=O)O/N=C(\C)SC [Thiodicarb]
mortality at 100 g/ha [4, 6]: 0% | mortality at 4 g/ha [1, 8]: 0%

O=C1C=C(N(Cc2ccc(Cl)nc2)CC(F)F)CO1 [Flupyradifurone]
Mortality in % after 2^d ([2]; 500 g ai/ha): 50% | Mortality in % after 1^d (Myzus persicae [3]; 20 g ai/ha): 70% | Mortality in % after 2^d ([1]; 0.8 g ai/ha): 0%

CNC(=O)c1cc(Cl)cc(C)c1NC(=O)c1cc(Br)nn1-c1ncccc1Cl [Chloranthraniliprole, Chlorantraniliprole]
mortality at 4 g/ha (Myzus persicae [5]; [6]): 80% | mortality at 0.8 g/ha [4, 6]: 33%

CC1(C)C(C=C(Cl)Cl)C1C(=O)OC(C#N)c1cccc(Oc2ccccc2)c1 (stereo not drawn) [Cypermethrin]
mortality at 0.8 g/ha (Spodoptera frugiperda; Spodoptera frugiperda, 0.8 g ai/ha, read-out: Mortality in % after 6^d): 67%

CN1COCN(Cc2cnc(Cl)s2)/C1=N\[N+](=O)[O-] [Thiamethoxam]
mortality at 20 g/ha [4, 12]: 67%

CC1(C)[C@H](C(=O)O[C@H](C#N)c2cccc(Oc3ccccc3)c2)[C@@H]1/C=C\C(=O)OC(C(F)(F)F)C(F)(F)F [Acrinathrin]
mortality at 0.8 g/ha (Myzus persicae [5]; [11]): 80%

O=S(=O)(CCC(F)=C(F)F)c1ncc(Cl)s1 [Fluensulfone]
Mortality in % after 2^d ([1]; 2000 g ai/ha): 0%

O=C(NC(=O)c1ccccc1Cl)Nc1ccc(OC(F)(F)F)cc1 [Triflumuron]
mortality at 20 g/ha (Spodoptera frugiperda; [13]): 0% | mortality at 20 g/ha [4, 6]: 0%

CC1(C)[C@H](C(=O)O[C@H](C#N)c2cccc(Oc3ccccc3)c2)[C@@H]1/C=C(\Cl)C(F)(F)F [Gamma-Cyhalothrin, gamma-Cyhalothrin]
Mortality in % after 2^d (Spodoptera frugiperda; 0.16 g ai/ha): 0%
